Assay results: patent US20210162009A1, “CHEMOKINE VARIANTS AS IMMUNE STIMULANTS” (THE MEDICAL COLLEGE OF WISCONSIN, INC., priority 2017, published 2021)

Tests used:
[1] = system: melanoma metastasis; details: cited from earlier work; for blocking of tumor metastasis: side-by-side equimolar comparison, 5 μM
[2] = Toxicity: serum AST, ALT, BUN; type: in vivo; details: 5 μM twice weekly for 3 weeks, mice
Method: Serum levels of aspartate aminotransferase (AST) and alanine aminotransferase (ALT) were measured using serologic assays to measure hepatic toxicity. Serum levels of blood urea nitrogen (BUN) were monitored to detect kidney damage.
Toxicity—Blood, bone marrow, and tissue levels of CXCL12 were measured using a commercially available sandwich ELISA assay (20-22). The ELISA will detect both endogenous and exogenous CXCL12. Toxicity is monitored using histopathologic assessment of heart, and kidney, and serum assays of hepatic (e.g. AST, ALT, AP) and kidney (e.g. BUN, creatinine) biomarkers, using standard veterinary assays. […] Published data (Roy et al., 2014) indicate twice weekly injection of 5 μM chemokine protein is well tolerated, with no change in body weight or appearance after 120 days in tumor xenografted mice.

[3] = relative to natural CXCL12; cited from earlier work
[4] = system: lymphocytes; assay: Mobilization of lymphocytes into peripheral blood and out of bone marrow; type: in vivo, mice
Method: (§1) FIGS. 6A-6C show mobilization of lymphocytes into the peripheral blood (A) and out of the bone marrow (B) 1 hour after subcutaneous injection of 5 μM (0.8 mg/kg) CXCL12 locked dimer 104 or 4000 μM (20 mg/kg) plerixafor/AMD3100 102. Control mice received an injection of the chemokine vehicle (Veh), sterile PBS 100. Values are mean±SEM, n=3-4 mice per group. Asterisks (****)=[…].
The chemokine CXCL12 is produced by bone marrow stromal cells (17). A single dose infusion of plerixafor/AMD3100 competitively antagonizes CXCR4 to disrupt stromal CXCL12 interactions with bone marrow cells, mobilizing HSC to enter into the peripheral blood (6). […] Importantly, the 5 μM the CXCL12 locked dimer dose used is the same concentration we have used to block tumor metastasis in vivo and where plerixafor/AMD3100 is ineffective (FIGS. 5A-5B).
After blood collection, treated and control mice were sacrificed and the bone marrow of each femur flushed with PBS. Peripheral blood and marrow samples were centrifuged (1800×g for 15 min at room temperature), the plasma removed, and the leukocytes in the buffy coat collected, an aliquot used to enumerate the total cell population using hemocytometry, and the remaining cells transferred to flow cytometry tubes. Peripheral and bone marrow immunocytes were incubated with fluorescence-tagged antibodies to detect the HSC markers CD34, CD11, SCA1, CD90, CD38, Lin and CXCR4, or the T cell and B cell markers CD3 and CD19, respectively.
Control mice received an injection of the chemokine vehicle (Veh), sterile PBS 100. Values are mean ±SEM, n=3-4 mice per group. Asterisks (****)=P≤0.001.

[5] = system: 5T33 multiple myeloma cells; assay: Mobilization of GFP-tagged 5T33 multiple myeloma cells into the blood; type: in vivo, mice; details: 50 μM subcutaneous, 1 hour, GFP+ cells by flow cytometry
Method: Representative flow cytometry plots are on the left measuring side scatter counts (SSC) and GFP+-5T33 multiple myeloma cells in the circulation before and after treatment shown in the right panels. n=5 mice per treatment group.
This mobilization is compared to the mobilization following administration of AMD3100. Mice bearing GFP-tagged 5T33 multiple myeloma cells were bled immediately prior to subcutaneous injection of either the CXCL12 locked dimer (50 μM) or AMD3100 (4 mM). Individual mice were re-bled 1-hour later and GFP+ myeloma tumor cells in peripheral circulation quantified by flow cytometry. Representative flow cytometry plots are on the left with GFP+-5T33 multiple myeloma cells in the circulation before and after treatment shown in the right panels. n=5 mice per treatment group.

[6] = system: CD34+CXCR4+ stem cells; assay: Mobilization of CD34+CXCR4+ hematopoietic stem cells; type: in vivo, mice
Method: as §1
FIGS. 8A-8C show mobilization of hematopoietic stem cells by the CXCL12 locked dimer. Mice were bled (baseline) prior to subcutaneous injection of LD at a final concentration of 5 μM. Mice were re-bled 15-minutes (FIG. 8A), 2-hours (FIG. 8B) or 4-hours (FIG. 8C) later. Two separate cohorts of mice (shown by circles and squares) were treated (n=3 per group) and show consistent increases in the number of CD34+ stem cells in the circulation.
After blood collection, treated and control mice were sacrificed and the bone marrow of each femur flushed with PBS. […] Peripheral and bone marrow immunocytes were incubated with fluorescence-tagged antibodies to detect the HSC markers CD34, CD11, SCA1, CD90, CD38, Lin and CXCR4, or the T cell and B cell markers CD3 and CD19, respectively.
FIGS. 8A-8C also show mobilization of hematopoietic stem cells by the CXCL12 locked dimer. […] Levels of CD34+CXCR4+ stem cells within circulating blood were detected and quantified using multiparametric flow cytometry.

[7] = Translational diffusion measurements (dimerisation state); type: physicochemical
Text: The lines connecting the cysteines show where the intra-and intermolecular disulfide bonds are. A) CXCL12-α2 locked dimer amino acid sequence with the conserved intramolecular disulfide bonds (black lines) and the engineered intermolecular disulfide bonds (red lines) illustrated. B) SDS-PAGE of CXCL12-αand CXCL12-α2 treated with and without dithiothreitol (DTT). […] D) N-terminal peptides corresponding to the first thirty-eight amino acids of CXCR4 are illustrated. The sequence for p38 is identical to that of CXCR4 except for an additional N-terminal Gly-Ser dipeptide (cloning artifact) and the C28A substitution (green) introduced to prevent oxidative peptide dimer formation. The sulfated peptides are identical to p38 except for the inclusion of sulfotyrosine at position 21 for p38-sY1 and at positions 7, 12 and 21 for p38-sY3.

[8] = target: T1, CXCR4 (Homo sapiens, UniProt P61073); details: 10 nM CXCL12 variants, with or without pertussis toxin; cited from earlier work
[9] = Heparin binding
Text: Further, in addition to binding CXCR4, CXCL12 also binds to heparin found in the extracellular matrix on cell surfaces. […] Amino acid substitutions in CXCL12, including K24S, K27S, or K24S/K27S can prevent heparin binding and increase the half-life of CXCL12 in vivo; therefore, similar mutations in CXCL12-α2 would likely prevent heparin binding and increase the in vivo half-life of the dimer.

[10] = target: T1, CXCR4; details: 125I-CXCL12 displacement; read-out: Kd for binding CXCR4; cited from earlier work
[11] = fitted, 20 mM sodium phosphate pH 7.4

T1 sequence (P61073 whole entry): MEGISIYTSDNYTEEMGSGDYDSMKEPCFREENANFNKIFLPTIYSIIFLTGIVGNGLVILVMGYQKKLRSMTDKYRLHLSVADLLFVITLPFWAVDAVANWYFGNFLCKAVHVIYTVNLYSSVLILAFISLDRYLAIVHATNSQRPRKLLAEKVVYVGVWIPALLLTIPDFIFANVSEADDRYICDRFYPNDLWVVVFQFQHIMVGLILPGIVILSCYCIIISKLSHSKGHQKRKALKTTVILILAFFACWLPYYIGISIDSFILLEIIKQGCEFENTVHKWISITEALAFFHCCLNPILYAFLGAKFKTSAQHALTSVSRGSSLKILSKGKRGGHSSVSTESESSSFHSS

Molecule | blocking of tumor metastasis [1] | hepatic or kidney toxicity (AST, ALT, BUN) [2] | stability against enzymatic digestion in serum [3] | inhibition of melanoma metastasis ([1]; dose response) | melanoma metastasis, comparison with plerixafor/AMD3100 ([1]; equimolar concentrations) | bone marrow resident lymphocytes ([4]; 5 μM, subcutaneous, 1 hour) | mobilization of hematopoietic cells into peripheral circulation ([4]; 5 μM, subcutaneous, 1 hour) | ability to mobilize lymphocytes, locked dimer vs AMD3100 ([4]; 1 hour after s.c. 5 μM (0.8 mg/kg) locked dimer or 4000 μM (20 mg/kg) plerixafor/AMD3100) | potency relative to plerixafor for mobilizing lymphocytes, mg/kg basis ([4]; vs plerixafor) [X] | potency relative to plerixafor for mobilizing lymphocytes, molar basis ([4]; vs plerixafor, also monocytes and neutrophils) [×] | mobilization of multiple myeloma cells into the blood [5] | number of CD34+ stem cells in circulation ([6]; 5 μM s.c., 15 minutes, 2 hours or 4 hours, two cohorts) | mobilization of CXCR4+CD34+ hematopoietic stem cells (FIG. 6C) ([6]; FIG. 6C) | Diffusion coefficient Ds ([7]; 10, 50 and 150 μM protein) | G protein dependent intracellular calcium flux [8] | heparin binding [9] | Kd [10] [nM] | dimer Ds value [7, 11] | pure monomer Ds value [7, 11]
c1cc(CN2CCCNCCNCCCNCC2)ccc1CN1CCCNCCNCCCNCC1 [plerixafor/AMD3100, plerixafor, reference compound] | ineffective | – | – | – | – | – | – | – | – | – | – | – | – | – | – | – | – | – | –
CXCL12 locked dimer: covalently locked dimer comprising two CXCL12 L36C/A65C sequences (SEQ ID NO: 1), linked by intermolecular disulfide bonds | blocked tumor metastasis | little hepatic or kidney toxicity | enhanced stability against enzymatic digestion in serum | dose dependently inhibits melanoma metastasis | more effective than plerixafor/AMD3100 | concomitant decrease in bone marrow resident lymphocytes | potently stimulated mobilization of hematopoietic cells into peripheral circulation | no statistical difference | 3 | 1000 | mobilizes multiple myeloma cells into the blood | consistent increases in the number of CD34+ stem cells in circulation | mobilization of CXCR4+CD34+ hematopoietic stem cells | 1.08-1.09 ×10^−6 cm^2s^−1 | activates the expected and prototypical G protein dependent intracellular calcium flux | also binds heparin | – | – | –
wild-type CXCL12: wild type CXCL12 chemokine (SEQ ID NO:3), natural ligand for CXCR4 | – | little hepatic or kidney toxicity | rapidly inactivated in serum | – | – | – | – | – | – | – | – | – | – | – | – | – | 25 | ~1.0 ×10^−6 cm^2s^−1 | ~1.6 ×10^−6 cm^2s^−1
